We go through one molecule from PubChem BioAssay (NCI).

Each structure is given as a SMILES string.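 Briefly, cells in 96-well plates were exposed to five compound concentrations for 48 h, and endpoints were estimated by linear interpolation. TGI: concentration producing complete growth inhibition.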

The assay concerns P388 leukemia. The experiment in a line: NCI tumour cell line growth inhibition, 48 h.

In turn, `CC1[C@@H]2CC=C3[C@H]4CCC5Cc6nc7c(nc6C[C@@]5(C)C4CC(=O)[C@]32CO[C@]12OC(C)(C)CC2O)CC1CC[C@@H]2C3=C[C@H]4O[C@@]5(O[C@@](C)(CO)C[C@@H]5O)C(C)[C@@]4(O)[C@]3(C)[C@@H](O)CC2[C@]1(C)C7` (stereo partly specified) gave a TGI of 638 pM.
